Data as given in paper PMC9007595 (Molecular microbiology, 2020).

T1: Mtb HtpG (Mycobacterium tuberculosis, UniProt P9WMJ7)
T1 sequence (P9WMJ7 1-647): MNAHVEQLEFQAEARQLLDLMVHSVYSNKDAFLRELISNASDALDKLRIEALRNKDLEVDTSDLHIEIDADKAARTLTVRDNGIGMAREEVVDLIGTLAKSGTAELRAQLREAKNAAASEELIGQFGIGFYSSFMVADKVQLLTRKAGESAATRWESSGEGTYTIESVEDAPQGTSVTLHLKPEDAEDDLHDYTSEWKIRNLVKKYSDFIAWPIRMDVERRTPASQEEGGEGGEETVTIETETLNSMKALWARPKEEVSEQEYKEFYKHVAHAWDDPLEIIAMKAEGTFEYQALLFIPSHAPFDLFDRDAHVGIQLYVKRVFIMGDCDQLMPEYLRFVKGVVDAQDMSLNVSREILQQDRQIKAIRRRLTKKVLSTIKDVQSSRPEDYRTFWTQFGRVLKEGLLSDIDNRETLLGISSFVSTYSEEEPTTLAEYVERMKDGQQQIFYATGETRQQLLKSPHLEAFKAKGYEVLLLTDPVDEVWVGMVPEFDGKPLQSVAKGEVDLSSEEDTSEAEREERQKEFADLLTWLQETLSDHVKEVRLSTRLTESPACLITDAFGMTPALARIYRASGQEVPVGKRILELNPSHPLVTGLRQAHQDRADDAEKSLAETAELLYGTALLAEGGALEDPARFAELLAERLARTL

B1: purified Mtb HtpG (size exclusion chromatography) (natural protein)
chain: T1 sequence (P9WMJ7 1-647)

Experiments:
[1] = biological target: yeast Hsp90 (S. cerevisiae Hsp82) (Saccharomyces cerevisiae, UniProt P02829); assay: ATPase activity assay with purified protein; assay type: biochemical
Sequence of yeast Hsp90 (S. cerevisiae Hsp82) (P02829 whole entry): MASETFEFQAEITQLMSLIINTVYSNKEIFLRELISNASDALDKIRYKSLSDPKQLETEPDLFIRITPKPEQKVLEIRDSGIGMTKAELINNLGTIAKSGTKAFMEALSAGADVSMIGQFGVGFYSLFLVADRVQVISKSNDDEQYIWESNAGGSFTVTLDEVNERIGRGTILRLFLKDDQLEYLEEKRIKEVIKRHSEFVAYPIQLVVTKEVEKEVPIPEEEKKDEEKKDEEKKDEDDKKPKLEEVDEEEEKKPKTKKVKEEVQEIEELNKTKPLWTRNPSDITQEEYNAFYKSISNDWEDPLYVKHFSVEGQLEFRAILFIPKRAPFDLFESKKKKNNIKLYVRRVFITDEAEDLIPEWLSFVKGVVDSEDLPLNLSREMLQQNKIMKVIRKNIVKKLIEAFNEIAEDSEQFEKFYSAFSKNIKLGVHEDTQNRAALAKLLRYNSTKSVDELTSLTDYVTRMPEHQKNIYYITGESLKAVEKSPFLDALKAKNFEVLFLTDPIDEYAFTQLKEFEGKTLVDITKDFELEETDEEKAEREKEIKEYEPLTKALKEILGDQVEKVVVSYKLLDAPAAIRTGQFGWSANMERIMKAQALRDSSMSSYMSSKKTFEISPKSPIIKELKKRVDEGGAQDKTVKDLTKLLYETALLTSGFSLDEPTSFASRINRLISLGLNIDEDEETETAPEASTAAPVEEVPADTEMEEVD

Mtb HtpG = biological target: T1, Mtb HtpG; assay: […]; assay type: binding
SEC = biological target: the molecule itself; assay: SEC

| Molecule | ATPase activity assay with purified protein (Figure S19) [1] | Kd (Mtb HtpG) [µM] | binding result (SEC) |
| --- | --- | --- | --- |
| COC1=C2C[C@@H](C)C[C@H](OC)[C@H](O)[C@@H](C)/C=C(\C)[C@H](OC(N)=O)[C@@H](OC)/C=C\C=C(/C)C(=O)NC(=CC1=O)C2=O [GA, geldanamycin] | Both proteins exhibited low ATPase activity that was inhibited by GA (Figure S19) | ~15.7 | – |
| B1 | – | – | binds |
